Counter-ions that a name gives are not always drawn.
melting point | SMILES
202 to 205 °C | O=S(=O)(c1ccccc1)N1CCOc2c(N3CCNCC3)cc(Cl)cc21 (as salt: hydrochloride)
147.9 to 152.9 °C | Cc1cc(N2CCNCC2)c2c(c1)N(S(=O)(=O)c1ccc(Cl)cc1)CCO2 (as salt: hydrochloride)
158.5 to 163.5 °C | CS(=O)(=O)Nc1cccc(S(=O)(=O)N2CCOc3c(N4CCNCC4)cccc32)c1 [Compound 20, N-[3-(8-Piperazin-1-yl-2,3-dihydro-benzo[1,4]oxazine-4-sulfonyl)-phenyl]-methanesulfonamide]
